According to US8334382B2, “Substituted biaryl piperazinyl-pyridine analogues” (Neurogen Corporation, priority 2004, dated 2012):
pIC50: −log10 of the molar value.

Biological target: T1, human capsaicin receptor (Homo sapiens, UniProt Q8NER1)
T1 construct: expressed in transfected cells; host or cells: HEK293, stably transfected with pBK-CMV construct
Assay: Calcium mobilization assay, determination of antagonist activity
Type: cell-based
Conditions: capsaicin at EC50; cells expressing human capsaicin receptor; Example 6
How it was run: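 IC50 is the antagonist level giving a 50% drop in the capsaicin (EC50) calcium signal, read by FLIPR in Fluo-3 AM-loaded stable HEK293 lines bearing full-length human receptor. Compounds at 1-5 µM final were preincubated 0.5-6 h, room temperature, dark, in KRH pH 7.4.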

T1 sequence (Q8NER1 whole entry): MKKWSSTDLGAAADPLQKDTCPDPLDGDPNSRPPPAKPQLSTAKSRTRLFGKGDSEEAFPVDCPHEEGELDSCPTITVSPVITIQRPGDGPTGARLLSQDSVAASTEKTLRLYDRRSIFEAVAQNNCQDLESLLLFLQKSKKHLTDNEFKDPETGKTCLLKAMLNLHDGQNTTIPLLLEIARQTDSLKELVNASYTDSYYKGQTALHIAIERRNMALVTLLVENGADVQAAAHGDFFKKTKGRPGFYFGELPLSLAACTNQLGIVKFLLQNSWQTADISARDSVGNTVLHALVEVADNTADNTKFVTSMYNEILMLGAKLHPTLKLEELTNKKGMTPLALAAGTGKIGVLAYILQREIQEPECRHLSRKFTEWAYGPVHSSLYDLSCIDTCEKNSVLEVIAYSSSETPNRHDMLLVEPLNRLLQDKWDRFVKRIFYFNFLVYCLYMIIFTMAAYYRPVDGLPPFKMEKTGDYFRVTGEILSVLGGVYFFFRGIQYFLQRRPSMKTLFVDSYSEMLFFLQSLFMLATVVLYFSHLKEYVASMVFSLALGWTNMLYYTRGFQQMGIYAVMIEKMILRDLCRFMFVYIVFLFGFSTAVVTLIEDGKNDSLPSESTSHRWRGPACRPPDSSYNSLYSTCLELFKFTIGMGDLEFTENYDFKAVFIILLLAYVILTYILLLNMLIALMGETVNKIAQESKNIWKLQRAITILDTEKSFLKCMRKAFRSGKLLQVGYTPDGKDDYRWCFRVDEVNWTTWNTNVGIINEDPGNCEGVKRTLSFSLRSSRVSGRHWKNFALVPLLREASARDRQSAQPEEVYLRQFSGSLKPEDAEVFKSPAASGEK

pIC50, ≥ 6.00:
Cc1cc(C(=O)O)cnc1N1CCN(c2cc(-c3ccc(F)cc3)nc(N3CCC[C@H]3C)n2)[C@H](C)C1 [Example 95, 6-{4-[6-(4-Fluoro-phenyl)-2-(2-(R)-methyl-pyrrolidin-1-yl)-pyrimidin-4-yl]-3-(R)-methyl-piperazin-1-yl}-5-methyl-nicotinic acid]
Cc1cc(C(=O)O)cnc1N1CCN(c2cc(-c3ccccc3)nc(N3CCC[C@H]3C)n2)[C@H](C)C1 [Example 96, 5-Methyl-6-{3-(R)-methyl-4-[2-(2-(R)-methyl-pyrrolidin-1-yl)-6-phenyl-pyrimidin-4-yl]-piperazin-1-yl}-nicotinic acid]
CC1CCCN1c1nc(-c2ccc(F)c(Cl)c2)cc(N2CCN(c3ncc(C(N)=O)cn3)CC2)n1 (centres unmarked) [Example 97, 2-{4-[6-(3-Chloro-4-fluoro-phenyl)-2-(2-methyl-pyrrolidin-1-yl)-pyrimidin-4-yl]-piperazin-1-yl}-pyrimidine-5-carboxylic acid amide]
C[C@@H]1CN(c2ncc(CO)cc2Cl)CCN1c1cc(-c2ccc(F)cc2)nc(N2CCC[C@H]2C)n1 [Example 98, (5-Chloro-6-{4-[6-(4-fluoro-phenyl)-2-(2-(R)-methyl-pyrrolidin-1-yl)-pyrimidin-4-yl]-3-(R)-methyl-piperazin-1-yl}-pyridin-3-yl)-methanol]
Cc1cc(C(=O)O)cnc1N1CCN(c2cc(-c3ccc(F)cc3)nc(N3CCC[C@@H]3C)n2)[C@H](C)C1 [Example 99, 6-{4-[6-(4-Fluoro-phenyl)-2-(2-(S)-methyl-pyrrolidin-1-yl)-pyrimidin-4-yl]-3-(R)-methyl-piperazin-1-yl}-5-methyl-nicotinic acid]
C[C@@H]1CN(c2ncc(CC#N)cc2Cl)CCN1c1cc(-c2ccc(F)cc2)nc(N2CCC[C@H]2C)n1 [Example 100, (5-Chloro-6-{4-[6-(4-fluoro-phenyl)-2-(2-(R)-methyl-pyrrolidin-1-yl)-pyrimidin-4-yl]-3-(R)-methyl-piperazin-1-yl}-pyridin-3-yl)-acetonitrile]
C[C@@H]1CN(c2ncc(CC(=O)O)cc2Cl)CCN1c1cc(-c2ccc(F)cc2)nc(N2CCC[C@H]2C)n1 [Example 101, (5-Chloro-6-{4-[6-(4-fluoro-phenyl)-2-(2-(R)-methyl-pyrrolidin-1-yl)-pyrimidin-4-yl]-3-(R)-methyl-piperazin-1-yl}-pyridin-3-yl)-acetic acid]
C[C@@H]1CN(c2ncc(C(N)=O)cc2Cl)CCN1c1cc(-c2ccc(F)c(Cl)c2)nc(N2CCC[C@H]2C)n1 [Example 102, 5-Chloro-6-{4-[6-(3-chloro-4-fluoro-phenyl)-2-(2-(R)-methyl-pyrrolidin-l-yl)-pyrimidin-4-yl]-3-(R)-methyl-piperazin-1-yl}-nicotinamide]
C[C@@H]1CN(c2ncc(C(=O)O)cc2Cl)CCN1c1cc(-c2ccc(F)c(Cl)c2)nc(N2CCC[C@H]2C)n1 [Example 103, 5-Chloro-6-{4-[6-(3-chloro-4-fluoro-phenyl)-2-(2-(R)-methyl-pyrrolidin-l-yl)-pyrimidin-4-yl]-3-(R)-methyl-piperazin-1-yl}-nicotinic acid]
C[C@@H]1CN(c2ncc(C(=O)O)cc2Cl)CCN1c1cc(-c2ccc(F)cc2)nc(N2CCOC[C@H]2C)n1 [Example 104, 5-Chloro-6-{4-[6-(4-fluoro-phenyl)-2-(3-(R)-methyl-morpholin-4-yl)-pyrimidin-4-yl]-3-(R)-methyl-piperazin-1-yl}-nicotinic acid]
Cc1cc(CC(=O)O)cnc1N1CCN(c2cc(-c3ccc(F)cc3)nc(N3CCC[C@H]3C)n2)[C@H](C)C1 [Example 105, (6-{4-[6-(4-Fluoro-phenyl)-2-(2-(R)-methyl-pyrrolidin-1-yl)-pyrimidin-4-yl]-3-(R)-methyl-piperazin-1-yl}-5-methyl-pyridin-3-yl)-acetic acid]
Cc1cc(C(=O)NC2CC2)cnc1N1CCN(c2cc(-c3ccc(F)cc3)nc(N3CCCC3C)n2)CC1 (centres unmarked) [Example 106, N-Cyclopropyl-6-{4-[6-(4-fluoro-phenyl)-2-(2-methyl-pyrrolidin-1-yl)-pyrimidin-4-yl]-piperazin-1-yl}-5-methyl-nicotinamide]
Cc1cc(C(=O)NC2CCC2)cnc1N1CCN(c2cc(-c3ccc(F)cc3)nc(N3CCCC3C)n2)CC1 (centres unmarked) [Example 107, N-cyclobutyl-6-{4-[6-(4-fluorophenyl)-2-(2-methylpyrrolidin-1-yl)pyrimidin-4-yl]piperazin-1-yl}-5-methylnicotinamide]
Cc1cc(C(=O)NC2CCCC2)cnc1N1CCN(c2cc(-c3ccc(F)cc3)nc(N3CCCC3C)n2)CC1 (centres unmarked) [Example 108, N-Cyclopentyl-6-{4-[6-(4-fluoro-phenyl)-2-(2-methyl-pyrrolidin-1-yl)-pyrimidin-4-yl]-piperazin-1-yl}-5-methyl-nicotinamide]
COCCNC(=O)c1cnc(N2CCN(c3cc(-c4ccc(F)cc4)nc(N4CCCC4C)n3)CC2)c(C)c1 (centres unmarked) [Example 109, 6-{4-[6-(4-fluorophenyl)-2-(2-methylpyrrolidin-1-yl)pyrimidin-4-yl]piperazin-1-yl}-N-(2-methoxyethyl)-5-methylnicotinamide]
COCCCNC(=O)c1cnc(N2CCN(c3cc(-c4ccc(F)cc4)nc(N4CCCC4C)n3)CC2)c(C)c1 (centres unmarked) [Example 110, 6-{4-[6-(4-fluorophenyl)-2-(2-methylpyrrolidin-1-yl)pyrimidin-4-yl]piperazin-1-yl}-N-(3-methoxypropyl)-5-methylnicotinamide]
Cc1cc(C(=O)NCC2CCCO2)cnc1N1CCN(c2cc(-c3ccc(F)cc3)nc(N3CCCC3C)n2)CC1 (centres unmarked) [Example 111, 6-{4-[6-(4-fluorophenyl)-2-(2-methylpyrrolidin-1-yl)pyrimidin-4-yl]piperazin-1-yl}-5-methyl-N-(tetrahydrofuran-2-ylmethyl)nicotinamide]
CCOCCCNC(=O)c1cnc(N2CCN(c3cc(-c4ccc(F)cc4)nc(N4CCCC4C)n3)CC2)c(C)c1 (centres unmarked) [Example 112, N-(3-ethoxypropyl)-6-{4-[6-(4-fluorophenyl)-2-(2-methylpyrrolidin-1-yl)pyrimidin-4-yl]piperazin-1-yl}-5-methylnicotinamide]
Cc1cc(C(=O)NCc2ccccc2)cnc1N1CCN(c2cc(-c3ccc(F)cc3)nc(N3CCCC3C)n2)CC1 (centres unmarked) [Example 113, N-benzyl-6-{4-[6-(4-fluorophenyl)-2-(2-methylpyrrolidin-1-yl)pyrimidin-4-yl]piperazin-1-yl}-5-methylnicotinamide]
Cc1cc(C(=O)NCc2ccc(F)cc2)cnc1N1CCN(c2cc(-c3ccc(F)cc3)nc(N3CCCC3C)n2)CC1 (centres unmarked) [Example 114, N-(4-fluorobenzyl)-6-{4-[6-(4-fluorophenyl)-2-(2-methylpyrrolidin-1-yl)pyrimidin-4-yl]piperazin-1-yl}-5-methylnicotinamide]
COc1ccc(CNC(=O)c2cnc(N3CCN(c4cc(-c5ccc(F)cc5)nc(N5CCCC5C)n4)CC3)c(C)c2)cc1 (centres unmarked) [Example 115, 6-{4-[6-(4-fluorophenyl)-2-(2-methylpyrrolidin-1-yl)pyrimidin-4-yl]piperazin-1-yl}-N-(4-methoxybenzyl)-5-methylnicotinamide]
Cc1cc(C(=O)NCCCN(C)C)cnc1N1CCN(c2cc(-c3ccc(F)cc3)nc(N3CCCC3C)n2)CC1 (centres unmarked) [Example 116, N-[3-(dimethylamino)propyl]-6-{4-[6-(4-fluorophenyl)-2-(2-methylpyrrolidin-1-yl)pyrimidin-4-yl]piperazin-1-yl}-5-methylnicotinamide]
COCC(C)NC(=O)c1cnc(N2CCN(c3cc(-c4ccc(F)cc4)nc(N4CCCC4C)n3)CC2)c(C)c1 (centres unmarked) [Example 117, 6-{4-[6-(4-fluorophenyl)-2-(2-methylpyrrolidin-1-yl)pyrimidin-4-yl]piperazin-1-yl}-N-(2-methoxy-1-methylethyl)-5-methylnicotinamide]
Cc1cc(C(=O)NCc2cccs2)cnc1N1CCN(c2cc(-c3ccc(F)cc3)nc(N3CCCC3C)n2)CC1 (centres unmarked) [Example 118, 6-{4-[6-(4-fluorophenyl)-2-(2-methylpyrrolidin-1-yl)pyrimidin-4-yl]piperazin-1-yl}-5-methyl-N-(2-thienylmethyl) nicotinamide]
CCOCCNC(=O)c1cnc(N2CCN(c3cc(-c4ccc(F)cc4)nc(N4CCCC4C)n3)CC2)c(C)c1 (centres unmarked) [Example 119, N-(2-ethoxyethyl)-6-{4-[6-(4-fluorophenyl)-2-(2-methylpyrrolidin-1-yl)pyrimidin-4-yl]piperazin-1-yl}-5-methylnicotinamide]
Cc1cc(C(=O)NCC(F)(F)F)cnc1N1CCN(c2cc(-c3ccc(F)cc3)nc(N3CCCC3C)n2)CC1 (centres unmarked) [Example 120, 6-{4-[6-(4-fluorophenyl)-2-(2-methylpyrrolidin-1-yl)pyrimidin-4-yl]piperazin-1-yl}-5-methyl-N-(2,2,2-trifluoroethyl)nicotinamide]
Cc1cc(C(=O)N(C)Cc2ccccc2)cnc1N1CCN(c2cc(-c3ccc(F)cc3)nc(N3CCCC3C)n2)CC1 (centres unmarked) [Example 121, N-benzyl-6-{4-[6-(4-fluorophenyl)-2-(2-methylpyrrolidin-1-yl)pyrimidin-4-yl]piperazin-1-yl}-N,5-dimethylnicotinamide]
Cc1cc(C(=O)N2CCCC2)cnc1N1CCN(c2cc(-c3ccc(F)cc3)nc(N3CCCC3C)n2)CC1 (centres unmarked) [Example 122, 4-(4-fluorophenyl)-2-(2-methylpyrrolidin-1-yl)-6-{4-[3-methyl-5-(pyrrolidin-1-ylcarbonyl)pyridin-2-yl]piperazin-1-yl}pyrimidine]
Cc1cc(C(=O)N2CCCCC2)cnc1N1CCN(c2cc(-c3ccc(F)cc3)nc(N3CCCC3C)n2)CC1 (centres unmarked) [Example 123, 4-(4-fluorophenyl)-6-{4-[3-methyl-5-(piperidin-1-ylcarbonyl)pyridin-2-yl]piperazin-1-yl}-2-(2-methylpyrrolidin-1-yl)pyrimidine]
